Results from US9145351B2, “Azole derivatives, methods for producing the same, intermediate thereof, agro-horticultural agents” (KUREHA CORPORATION, priority 2009, dated 2015).
Like-named read-outs stand apart in the source and are kept apart here.

Assays:
Format in all cases: cell-based
[1] = system: Sclerotinia sclerotiorum; experiment: Plate medium fungicidal assay, Sclerotinia rot S.s (Experimental Example 5); conditions: for inhibition at 5 µg/mL / inhibition at 50 µg/mL: Sclerotinia sclerotiorum
How it was run: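 A 4 mm mycelial plug was placed on PDA plates containing compound at 50 mg/L and 5 mg/L, added from DMSO solution. Colony diameters were compared with untreated plates, % mycelial growth inhibition was R=100(dc−dt)/dc, and scores fell into 5 grades.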

[2] = system: Pyricularia oryzae; experiment: microbe, parasite or virus in culture; conditions: for inhibition at 5 µg/mL / inhibition at 50 µg/mL: Pyricularia oryzae
[3] = system: Pseudocercoporella herpotrichoides; experiment: Plate medium fungicidal assay, wheat eye spot P.h (Experimental Example 5)
How it was run: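 Compound in DMSO mixed into PDA agar for plates at 50 mg/L and 5 mg/L, inoculated with a 4 mm mycelial plug of Pseudocercosporella herpotrichoides. Colony diameter compared with untreated plates: % mycelial growth inhibition = 100(dc−dt)/dc, scored on a 5-grade scale.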

[4] = system: Rhynchosporium secalis; experiment: Plate medium fungicidal assay, barley leaf blotch R.sec (Experimental Example 5); conditions: for inhibition at 5 µg/mL / inhibition at 50 µg/mL: Rhynchosporium secalis
How it was run: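 Compound in DMSO mixed into PDA plate medium at 50 mg/L and 5 mg/L; 4 mm mycelial plug of the fungus inoculated. Colony diameter compared with untreated plates gives % mycelial growth inhibition R=100(dc−dt)/dc, scored on a 5-grade scale.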

[5] = system: Giberella fujikuroi; experiment: Plate medium fungicidal assay, rice bakanae disease G.f (Experimental Example 5)
How it was run: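 Gibberella fujikuroi mycelial plugs (4 mm) placed on PDA plates containing compound at 50 mg/L and 5 mg/L, added from DMSO solution. Colony diameter compared with untreated plates as % inhibition = 100(dc−dt)/dc, then scored in 5 grades.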

[6] = system: Phaeosphaeria nodorum; experiment: Plate medium fungicidal assay, wheat Septoria nodorum blotch P.n (Experimental Example 5); conditions: for inhibition at 5 µg/mL / inhibition at 50 µg/mL: Parastagonospora nodorum
How it was run: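 Compound in DMSO mixed into PDA plate medium at 50 mg/L and 5 mg/L; 4 mm mycelial plug of pre-cultured fungus inoculated onto plate. Colony diameter compared with untreated plate, % mycelial growth inhibition = 100(dc−dt)/dc, scored in 5 grades.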

[7] = plate medium, 5 mg/L, read-out: growth inhibition grade S.s
[8] = plate medium, 50 mg/L, read-out: growth inhibition grade S.s
[9] = read-out: growth inhibition grade P.o
[10] = plate medium, 5 mg/L, read-out: growth inhibition grade P.h
[11] = plate medium, 50 mg/L, read-out: growth inhibition grade P.h
[12] = plate medium, 5 mg/L, read-out: growth inhibition grade R.sec
[13] = plate medium, 50 mg/L, read-out: growth inhibition grade R.sec
[14] = plate medium, 5 mg/L, read-out: growth inhibition grade G.f
[15] = plate medium, 50 mg/L, read-out: growth inhibition grade G.f
[16] = plate medium, 5 mg/L, read-out: growth inhibition grade P.n
[17] = plate medium, 50 mg/L, read-out: growth inhibition grade P.n
[18] = plate medium containing compound at 5 mg/L
[19] = plate medium containing compound at 50 mg/L
[20] = plate medium containing compound at 5 mg/L, read-out: Growth inhibition grade, S.s
[21] = plate medium containing compound at 50 mg/L, read-out: Growth inhibition grade, S.s
[22] = read-out: Growth inhibition grade, P.o
[23] = plate medium containing compound at 5 mg/L, read-out: Growth inhibition grade, P.h
[24] = plate medium containing compound at 50 mg/L, read-out: Growth inhibition grade, P.h
[25] = plate medium containing compound at 5 mg/L, read-out: Growth inhibition grade, R.sec
[26] = plate medium containing compound at 50 mg/L, read-out: Growth inhibition grade, R.sec
[27] = plate medium containing compound at 5 mg/L, read-out: Growth inhibition grade, G.f
[28] = plate medium containing compound at 50 mg/L, read-out: Growth inhibition grade, G.f
[29] = plate medium containing compound at 5 mg/L, read-out: Growth inhibition grade, P.n
[30] = plate medium containing compound at 50 mg/L, read-out: Growth inhibition grade, P.n

Row | Compound | Growth inhibition grade, S.s [1, 18] | Growth inhibition grade, S.s [1, 19] | Growth inhibition grade, P.o [2, 18] | Growth inhibition grade, P.o [2, 19] | Growth inhibition grade, P.h [3, 18] | Growth inhibition grade, P.h [3, 19] | Growth inhibition grade, R.sec [4, 18] | Growth inhibition grade, R.sec [4, 19] | Growth inhibition grade, G.f [5, 18] | Growth inhibition grade, G.f [5, 19] | Growth inhibition grade, P.n [6, 18] | Growth inhibition grade, P.n [6, 19] | inhibition at 5 µg/mL [1, 20] [%] | inhibition at 50 µg/mL [1, 21] [%] | inhibition at 5 µg/mL [2, 22] [%] | inhibition at 50 µg/mL [2, 22] [%] | inhibition at 5 µg/mL [3, 23] [%] | inhibition at 50 µg/mL [3, 24] [%] | inhibition at 5 µg/mL [4, 25] [%] | inhibition at 50 µg/mL [4, 26] [%] | further results
1 | CC(Cl)=C[C@]1(C)CC[C@@H](Cc2ccc(Cl)cc2)[C@]1(O)Cn1cncn1 (racemic) [Compound I-115, (1RS,2SR,5SR)-5-(4-chlorobenzyl)-2-(2-chloropropenyl)-2-methyl-1-(1H-1,2,4-triazol-1-ylmethyl)cyclopentanol] |  |  |  |  |  |  |  |  |  |  |  |  |  |  |  |  |  |  |  |  | inhibition at 5 µg/mL [1, 7]: > 80%; inhibition at 50 µg/mL [1, 8]: > 80%; inhibition at 5 µg/mL [2, 9]: > 80%; inhibition at 50 µg/mL [2, 9]: > 80%; inhibition at 5 µg/mL [3, 10]: > 80%; inhibition at 50 µg/mL [3, 11]: > 80%; inhibition at 5 µg/mL [4, 12]: > 80%; inhibition at 50 µg/mL [4, 13]: > 80%; inhibition at 5 µg/mL [5, 14]: > 80%; inhibition at 50 µg/mL [5, 15]: > 80%; inhibition at 5 µg/mL [6, 16]: 60 to 80%; inhibition at 50 µg/mL [6, 17]: > 80%
2 | CC[C@]1(CCl)CC[C@@H](Cc2ccccc2)[C@]1(O)Cn1cncn1 (relative stereo) [Compound I-97] | 5 (% Mycerial growth inhibition of 80% or higher) | 5 (% Mycerial growth inhibition of 80% or higher) | 5 (% Mycerial growth inhibition of 80% or higher) | 5 (% Mycerial growth inhibition of 80% or higher) | 5 (% Mycerial growth inhibition of 80% or higher) | 5 (% Mycerial growth inhibition of 80% or higher) | 5 (% Mycerial growth inhibition of 80% or higher) | 5 (% Mycerial growth inhibition of 80% or higher) | 5 (% Mycerial growth inhibition of 80% or higher) | 5 (% Mycerial growth inhibition of 80% or higher) | 5 (% Mycerial growth inhibition of 80% or higher) | 5 (% Mycerial growth inhibition of 80% or higher) |  |  |  |  |  |  |  |  | 
3 | C[C@]1(CCl)CC[C@@H](Cc2ccc(-c3ccccc3)cc2)[C@]1(O)Cn1cncn1 (relative stereo) [Compound I-82] | 5 (% Mycerial growth inhibition of 80% or higher) | 5 (% Mycerial growth inhibition of 80% or higher) | 5 (% Mycerial growth inhibition of 80% or higher) | 5 (% Mycerial growth inhibition of 80% or higher) | 5 (% Mycerial growth inhibition of 80% or higher) | 5 (% Mycerial growth inhibition of 80% or higher) | 5 (% Mycerial growth inhibition of 80% or higher) | 5 (% Mycerial growth inhibition of 80% or higher) | 5 (% Mycerial growth inhibition of 80% or higher) | 5 (% Mycerial growth inhibition of 80% or higher) | 5 (% Mycerial growth inhibition of 80% or higher) | 5 (% Mycerial growth inhibition of 80% or higher) |  |  |  |  |  |  |  |  | 
4 | C[C@]1(CCl)CC[C@@H](Cc2ccccc2)[C@]1(O)Cn1cncn1 (racemic) [Compound I-73, (1RS,2SR,5SR)-2-chloromethyl-5-benzyl-2-methyl-1-(1H-1,2,4-triazol-1-ylmethyl)cyclopentanol] |  |  |  |  |  |  |  |  |  |  |  |  | > 80 | > 80 | > 80 | > 80 | > 80 | > 80 | > 80 | > 80 | inhibition at 5 µg/mL [1, 7]: > 80%; inhibition at 50 µg/mL [1, 8]: > 80%; inhibition at 5 µg/mL [2, 9]: > 80%; inhibition at 50 µg/mL [2, 9]: > 80%; inhibition at 5 µg/mL [3, 10]: > 80%; inhibition at 50 µg/mL [3, 11]: > 80%; inhibition at 5 µg/mL [4, 12]: > 80%; inhibition at 50 µg/mL [4, 13]: > 80%; inhibition at 5 µg/mL [5, 27]: > 80%; inhibition at 50 µg/mL [5, 28]: > 80%; inhibition at 5 µg/mL [5, 14]: > 80%; inhibition at 50 µg/mL [5, 15]: > 80%; inhibition at 5 µg/mL [6, 29]: > 80%; inhibition at 50 µg/mL [6, 30]: > 80%; inhibition at 5 µg/mL [6, 16]: > 80%; inhibition at 50 µg/mL [6, 17]: > 80%
5 | C[C@]1(CCl)CC[C@@H](Cc2cccc(Cl)c2)[C@]1(O)Cn1cncn1 (racemic) [Compound I-74, (1RS,2SR,5SR)-5-(3-chlorobenzyl)-2-chloromethyl-2-methyl-1-(1H-1,2,4-triazol-1-ylmethyl)cyclopentanol] |  |  |  |  |  |  |  |  |  |  |  |  | > 80 | > 80 | > 80 | > 80 | > 80 | > 80 | > 80 | > 80 | inhibition at 5 µg/mL [5, 27]: > 80%; inhibition at 50 µg/mL [5, 28]: > 80%; inhibition at 5 µg/mL [6, 29]: > 80%; inhibition at 50 µg/mL [6, 30]: > 80%
6 | O[C@]1(Cn2cncn2)[C@H](Cc2ccc(Cl)cc2)CCC1(CCl)CCl (relative stereo) [Compound I-203, cis-5-(4-chlorobenzyl)-2,2-bis(chloromethyl)-1-(1H-1,2,4-triazol-1-yl)methylcyclopentanol] |  |  |  |  |  |  |  |  |  |  |  |  |  |  |  |  |  |  |  |  | Growth inhibition grade, S.s ([1]; plate medium, 5 mg/L): 5 (% Mycerial growth inhibition of 80% or higher); Growth inhibition grade, S.s ([1]; plate medium, 50 mg/L): 5 (% Mycerial growth inhibition of 80% or higher); Growth inhibition grade, P.o ([2]; plate medium, 5 mg/L): 5 (% Mycerial growth inhibition of 80% or higher); Growth inhibition grade, P.o ([2]; plate medium, 50 mg/L): 5 (% Mycerial growth inhibition of 80% or higher); Growth inhibition grade, P.h ([3]; plate medium, 5 mg/L): 5 (% Mycerial growth inhibition of 80% or higher); Growth inhibition grade, P.h ([3]; plate medium, 50 mg/L): 5 (% Mycerial growth inhibition of 80% or higher); Growth inhibition grade, R.sec ([4]; plate medium, 5 mg/L): 5 (% Mycerial growth inhibition of 80% or higher); Growth inhibition grade, R.sec ([4]; plate medium, 50 mg/L): 5 (% Mycerial growth inhibition of 80% or higher); Growth inhibition grade, G.f ([5]; plate medium, 5 mg/L): 5 (% Mycerial growth inhibition of 80% or higher); Growth inhibition grade, G.f ([5]; plate medium, 50 mg/L): 5 (% Mycerial growth inhibition of 80% or higher); Growth inhibition grade, P.n ([6]; plate medium, 5 mg/L): 5 (% Mycerial growth inhibition of 80% or higher); Growth inhibition grade, P.n ([6]; plate medium, 50 mg/L): 5 (% Mycerial growth inhibition of 80% or higher)
7 | CC(Cl)=C[C@@]1(C)CC[C@@H](Cc2ccc(Cl)cc2)[C@]1(O)Cn1cncn1 (racemic) [Compound I-15, (1RS,2RS,5SR)-5-(4-chlorobenzyl)-2-(2-chloropropenyl)-2-methyl-1-(1H-1,2,4-triazol-1-ylmethyl)cyclopentanol] |  |  |  |  |  |  |  |  |  |  |  |  | > 80 | > 80 | > 80 | > 80 | > 80 | > 80 | > 80 | > 80 | inhibition at 5 µg/mL [5, 27]: > 80%; inhibition at 50 µg/mL [5, 28]: > 80%; inhibition at 5 µg/mL [6, 29]: > 80%; inhibition at 50 µg/mL [6, 30]: > 80%
8 | C[C@]1(CCl)CC[C@@H](Cc2ccccc2F)[C@]1(O)Cn1cncn1 (relative stereo) [Compound I-86] | 5 (% Mycerial growth inhibition of 80% or higher) | 5 (% Mycerial growth inhibition of 80% or higher) | 5 (% Mycerial growth inhibition of 80% or higher) | 5 (% Mycerial growth inhibition of 80% or higher) | 5 (% Mycerial growth inhibition of 80% or higher) | 5 (% Mycerial growth inhibition of 80% or higher) | 5 (% Mycerial growth inhibition of 80% or higher) | 5 (% Mycerial growth inhibition of 80% or higher) | 5 (% Mycerial growth inhibition of 80% or higher) | 5 (% Mycerial growth inhibition of 80% or higher) | 5 (% Mycerial growth inhibition of 80% or higher) | 5 (% Mycerial growth inhibition of 80% or higher) |  |  |  |  |  |  |  |  | 
